Entries after “also recorded” stand apart in the source; their conditions may differ.
B1: MCP-II: mast cell protease II, serine proteinase of mucosal mast cells (protein, UniProt P00770 21-247, looked up)
Mast cell protease 2: IIGGVESIPHSRPYMAHLDIVTEKGLRVICGGFLISRQFVLTAAHCKGREITVILGAHDVRKRESTQQKIKVEKQIIHESYNSVPNLHDIMLLKLEKKVELTPAVNVVPLPSPSDFIHPGAMCWAAGWGKTGVRDPTSYTLREVELRIMDEKACVDYRYYEYKFQVCVGSPTTLRAAFMGDSGGPLLCAGVAHGIVSYGHPDAKPPAIFTRVSTYVPWINAVINTSS

How the values were obtained:
Caco2 cell monolayers = test: PAR-2 AP-induced actin rearrangement in Caco2 cell monolayers; assay type: cell-based, human; conditions: 10^−6M, vs BSA-treated monolayers
Source text: FIGS. 5A to 5D. Actin cytoskeleton arrangement in Caco2 cells exposed to PAR2-AP (FIG. 5A), BSA (FIG. 5B), PAR2-AP+FZI/0 (FIG. 5C), or PAR-2 AP+FZI/1 (FIG. 5D).
Effect of the Zot/zonulin inhibitor FZI/0 on PAR-2 AP-induced actin rearrangement. It has been recently reported that activation of PAR-2 receptor by PAR-2 AP promotes cytoskeletal reorganization (53). To establish whether this effect can be prevented by the synthetic Zot/zonulin peptide inhibitor, FZI/0, immunofluorescence studies were conducted in Caco2 cell monolayers. […] These cytoskeletal changes were blocked by the pre-incubation with 2×10^−6M FZI/0 (FIG. 5C), but not by the scrambled peptide FZI/1 (FIG. 5D). Therefore, PAR-2 AP and FZI/0 appear to bind to the identical structure on enterocytes.

PAR-2 = test: FZI/0-PAR-2 AP competitive binding experiments in Caco2 cells; set-up: species or system human; conditions: FITC-FZI/0 2×10^−8M, competitor 100× excess (10^−6M)
Procedure: FIGS. 4A-4D. FZI/0-PAR-2 AP competitive binding experiments.
FZI/0—PAR-2 AP competitive binding experiments. The activation of PAR-2 requires binding of either its tryptase-generated, cleaved N-terminal portion or the synthetic peptide equivalent, PAR-2 AP, to the receptor's extracellular loop 2 (ECL2) (47). To establish whether FZI/0 binds to the same receptor domain, competitive binding experiments were conducted in Caco2 cells. Cell monolayers were incubated with FITC-FZI/0 (2×10^−8M)) either in the presence of an excess of PAR-2 AP (10^−6M) or a scrambled peptide and then analyzed by fluorescence microscopy.

[1] = tested on: intestinal tissues of wild-type mice; test: Intestinal TEER in wild-type mice; conditions: vs control tissues
[2] = tested on: mouse intestinal small intestine; test: Microsnapwell assay, mouse small intestine TEER; conditions: luminal addition; PAR-2 AP 10^−6M, MCP-II 10^−8M; vs untreated tissues

| Molecule | Actin cytoskeleton arrangement (stress fibers) (Caco2 cell monolayers) | Displacement of FITC-FZI/0 by excess competitor (PAR-2) | Displacement of FITC-FZI/0 by excess competitor (PAR-2; listed as PAR2-AP) | Effect on intestinal TEER [1] | Effect on TEER [2] |
| --- | --- | --- | --- | --- | --- |
| SLIGRL [PAR-2 AP] | dissolution of stress fibers | significant reduction of FZI/0 immunofluorescent staining particles | displaced FZI/0 | significant drops in TEER; also recorded: comparable drop in intestinal resistance | significant drops in TEER; also recorded: decreased TEER |
| B1 |  |  |  |  | significant drops in TEER; also recorded: decreased TEER |

Source: patent publication US7294689B2, “Agonist polypeptide of receptor for Zot and Zonulin” (University of Maryland, Baltimore, priority 2003, dated 2007)
